Reference: US20170165259A1, “COMBINED MODULATION OF IRE1” (THE REGENTS OF THE UNIVERSITY OF CALIFORNIA, priority 2014, published 2017)

Legend:
Format in all cases: cell-based, rat
endogenous IRE1α [1] = test: XBP1 mRNA splicing in INS-1 cells under ER stress; settings: thapsigargin (Tg) 6 nM
Procedure: (§1) FIGS. 5A-5E. […] (FIG. 5C) EtBr-stained agarose gel of XBP1 complementary DNA (cDNA) amplicons from the INS-1 cells described in (B).
(§2) To further explore how IRE1α modulators affect the kinase and RNase activities of endogenous IRE1α under ER stress, in vivo studies using INS-1 rat insulinoma cell lines, which are derived from insulin-producing pancreatic β-cell tumors and contain large well-developed ERs, were conducted.

endogenous IRE1α [2] = test: IRE1α auto-phosphorylation immunoblot in INS-1 cells under ER stress; settings: ER stress (Tg)
Procedure: as §1, §2
For protein analysis, cells were lysed in M-PER buffer (Thermo Scientific) plus complete EDTA-free protease inhibitor (Roche) and phosphatase inhibitor cocktail (Sigma). The concentration of samples was determined using BCA Protein Assay (Thermo). […] Gels were run using MES buffer and transferred onto nitrocellulose transfer membrane using an XCell II™ Blot Module. Blocking, antibody incubation, and washing were done in PBS or TBS with 0.05% Tween-20 (v/v) and 5% (w/v) non-fat dry milk or BSA, or blocking buffer (Licor-Odyssey). Antibodies used were: mouse anti-Actin (Sigma-Aldrich); rabbit anti-cleaved Caspase-2 (Abcam); mouse anti-GAPDH, anti-c-Myc, anti-rabbit, anti-proinsulin, and anti-IRE1α (Santa Cruz Biotechnology); anti-phospho-IRE1α and anti-full length Caspase-2 (Novus Biologicals); and rabbit anti-Caspase-3, anti-JNK, anti-eIF2a, anti-phospho-eIF2a, and mouse anti-phospho-JNK (Cell Signaling). Antibody binding was detected by using near-infrared-dye-conjugated secondary antibodies (Licor) on the LI-COR Odyssey scanner or visualized by capturing on a CL-XPosure film using ECL SuperSignal West Dura Extended Duration Substrate (both from Thermo Scientific).

IRE1α (WT) = test: Dox-induced IRE1α (WT) hyperactivation in INS-1 stable lines; settings: STF-083010 at 50 µM
From the text: These aforementioned terminal UPR signaling events can be completely mimicked simply by controlled over-expression of IRE1α, in the complete absence of upstream ER stress. Tetracycline-inducible isogenic INS-1 stable cell lines expressing WT IRE1α were generated. Induced with doxycycline (dox) the transgenic IRE1α proteins oligomerize, spontaneously trans-autophosphorylate and trigger XBP1 mRNA splicing. The transgenic systems are finely tuneable, with increasing [Dox] causing progressively greater IRE1α induction (the transgenic IRE1α protein is Myc-tagged). Phospho/Myc IRE1α ratios are finely controllable (and measureable) with increasing [Dox], as is XBP1 mRNA splicing. […] These include reduction of miR-17 and Ins1 mRNA, induction of CHOP mRNA, induction and proteolytic cleavage of caspases 1,2, and 3, and apoptosis as measured by Annexin-V staining. […]
For protein analysis, cells were lysed in M-PER buffer (Thermo Scientific) plus complete EDTA-free protease inhibitor (Roche) and phosphatase inhibitor cocktail (Sigma). The concentration of samples was determined using BCA Protein Assay (Thermo). […] Antibody binding was detected by using near-infrared-dye-conjugated secondary antibodies (Licor) on the LI-COR Odyssey scanner or visualized by capturing on a CL-XPosure film using ECL SuperSignal West Dura Extended Duration Substrate (both from Thermo Scientific).

INS-1 cells = test: Annexin V apoptosis of INS-1 cells under ER stress
Procedure: FIGS. 19A-19D. KIRA6 inhibits Terminal UPR outputs of IRE1α to protect against ER stress-induced apoptosis. […] (FIG. 19B) Q-PCR for Ins1 mRNA in INS-1 IRE1α (WT) cells treated with Dox (5 ng/ml)−/+STF-083010 (50 M) over the indicated timecourse. (FIG. 19C) Annexin V staining of INS-1 cells after 72 hr with indicated [Tm]−/+STF-083010 (50 M). (FIG. 19D) Annexin V staining of INS-1 cells after 72 hr with Tm (0.2 μg/ml), STF-083010 (1 or 5 M), and KIRA6 (0.05 M) as indicated. Data plotted as mean+/−SD. P-values: *<0.05, **<0.01, ***<0.005.
For assaying apoptosis by Annexin V staining, cells were plated in 12-well plates overnight. Cells were then treated with various reagents for indicated time periods. On the day of flow cytometry analysis, cells were trypsinized and washed in PBS and resuspended in Annexin V binding buffer with Annexin-V FITC (BD Pharmingen™). Flow cytometry was performed on a Becton Dickinson LSRII flow cytometer.

## O=S(=O)(N=Cc1c(O)ccc2ccccc12)c1cccs1 [STF-083010, N-[(2-Hydroxy-1-naphthalenyl)methylene]-2-thiophenesulfonamide, reference compound]
Endogenous IRE1α [1]
  XBP1 mRNA splicing (IRE1α RNase activity) in INS-1 cells: inhibits XBP1 splicing in a dose-dependent manner
Endogenous IRE1α [2]
  endogenous IRE1α auto-phosphorylation in INS-1 cells: does not prevent IRE1α auto-phosphorylation
Endogenous IRE1α [2]; listed as STF
  endogenous IRE1α auto-phosphorylation in INS-1 cells: does not inhibit IRE1α auto-phosphorylation
IRE1α (WT)
  Ins1 mRNA decay under IRE1α hyperactivation: decreases Ins1 mRNA decay under IRE1α hyperactivation
INS-1 cells; STF-083010 1 M or KIRA6 50 nM alone
  cytoprotection under Tm, single agent at the dose of the combination: sub-therapeutic individually
INS-1 cells; STF-083010 at 50 µM
  apoptosis by Tm: decreases
